Data published in patent publication US8618046B2, “Treatment of atherosclerosis with cholesterol ester transport protein mimotopes” (Affiris AG, priority 2007, dated 2013).
Entries after “also recorded” stand apart in the source; their conditions may differ. Where no end group is shown, it is not given here.

Key:
[1] = tested on: original epitope (p4073); experiment: Titer to the original CETP epitope in sera of immunised animals (peptide ELISA); format: in vivo, mouse; conditions: for antibody response to the original CETP epitope (in words): coupled to KLH, mice and rabbits; for titer, original epitope-BSA: FIG. 11, Balb/c mice, 30 μg peptide, Alum as adjuvant, S3, coating 1 μM p4073-BSA, detection αIgG
Procedure: (§1) Balb/c mice/30 μg Peptide, 2 injections in 2 week intervals. S3=2 weeks after 3rd injection. Alum as adjuvant. Titers against original epitope (p4073) induced by injection of mimotopes. Well coating: 50 μl of 1 μM p4073-BSA or 1 μg/ml activated KLH. Detection: αIgG:
(§2) Inhibiting as well as some non-inhibiting peptides were coupled to KLH and injected into mice (wildtype or CETP-transgenic mice; subcutaneously into the flank or intra-dermaly into the ears) or rabbits (subcutaneously into the flank) together with an appropriate adjuvant (aluminium hydroxide and Gerbu 100 for mice and aluminium hydroxide or CFA/IFA for rabbits).
(§3) Titers to injected peptides as well as to the original CETP epitope were determined. In addition, for selected sera also immune response to CETP protein was measured (Results see FIGS. 7a to 7d and FIGS. 19a to 19e).
(§4) Subcutaneous injections in the flank were performed in week 1, week 3 and week 7 with 30 μg peptide-KLH per mouse. Intradermal injections in the ear were performed in week 1, week 3 and week 6 with 10 μg peptide-KLH per mouse. Sera were taken 2 weeks after the 3rd injection. Vaccine formulation with Alum (always 1 mg per mouse): up to 250 μl, injected into one flank. The Alum formulation with 1 ml per mouse (500 μl into each flank) was in 1×PBS as buffer.
Vaccine formulation with Gerbu Adjuvant 100 (Gerbu Cat. Nr. #3100; always 50 μl adjuvant per mouse): 200 μl, 100 μl injected into each flank comprising 1×HEPES as buffer. […]

[2] = tested on: injected peptide-BSA; experiment: Titer to the injected peptide in sera of immunised animals (peptide ELISA); format: in vivo, mouse; conditions: FIG. 11; Balb/c mice, 30 μg peptide, Alum as adjuvant; S3 = 2 weeks after 3rd injection; detection αIgG
Procedure: Balb/c mice/30 μg Peptide, 2 injections in 2 week intervals. S3=2 weeks after 3rd injection. Alum as adjuvant. […] Detection: αIgG:
as §2, §3
as §4, with “buffer. […]” for “buffer.”

[3] = tested on: irrelevant peptide-BSA; experiment: Titer to irrelevant peptide in sera of immunised animals (peptide ELISA); format: in vivo, mouse; conditions: for titer, irrelevant peptide-BSA: FIG. 11, Balb/c mice, 30 μg peptide, Alum as adjuvant, S3, detection αIgG; for titer, p irrelevant: Table 1, mice, sera 2 weeks after 3rd injection
Procedure: as §1, §4
Vaccine formulation with Gerbu Adjuvant 100 (Gerbu Cat. Nr. #3100; always 50 μl adjuvant per mouse): 200 μl, 100 μl injected into each flank comprising 1×HEPES as buffer.
Female Balb/c mice, five mice per group, were subcutaneously immunized with 30 μg peptide coupled to KLH. Control groups were administered KLH or C-[…] (SEQ ID NO. 147). As adjuvant alum was used. […] The in vitro ELISA assay to determine the antibody titer was performed with pooled sera after two vaccinations in a two week interval (S2; see FIGS. 7a to 7d). The wells of the ELISA plate were coated with KLH (positive control), mimotope-BSA conjugate, C-[…] (SEQ ID NO. 147) and a irrelevant peptide-BSA conjugate (negative control). The detection was performed with anti-mouse IgG.

[4] = tested on: recombinant GST-CETP; experiment: Anti-protein ELISA of sera of immunised mice, plates coated with recombinant GST-CETP; format: in vivo; conditions: sera of immunised mice
Source text: (§5) FIGS. 12a and 12b show the in vivo induction of CETP specific antibodies by the administration of the mimotopes of the invention. Titers to p4073 and its correlation to titers to CETP of selected groups (which show high titers against p4073): gr.4, gr.9, gr.10, gr.14, gr.16-20/gr.1 (KLH), gr.2 (original epitope) as controls. Coating: recombinant GST-CETP or purified rabbit CETP, respectively:
(§6) Sera of each group (5 Balb/c mice each) were combined, diluted 1:100 and tested on ELISA plates coated with recombinant GST-CETP or rabbit CETP, respectively. Detection of bound antibodies was with algG.
as §3

[5] = tested on: rabbit CETP; experiment: Anti-protein ELISA of sera of immunised mice, plates coated with purified rabbit CETP; format: in vivo, mouse; conditions: sera of immunised mice, purified rabbit CETP
Source text: as §5, §6, §3

[6] = tested on: CETP; experiment: CETP activity assay: human serum mixed with serum from vaccinated wild-type mice; format: biochemical; conditions: for CETP activity after addition of serum from vaccinated mice: FIG. 14, 0.6 μl human serum; for inhibition of CETP activity in human serum (in words): FIGS. 15 to 17 and remarks in the example set-up table, sera of vaccinated mice

| Substance | titer, injected peptide-BSA [2] | titer, original epitope-BSA [1] | titer, irrelevant peptide-BSA [3] | ELISA signal, recombinant GST-CETP ([4]; FIG. 12a) | ELISA signal, rabbit CETP ([5]; FIG. 12a) | ELISA signal, recombinant GST-CETP ([4]; FIG. 12b) | ELISA signal, rabbit CETP ([5]; FIG. 12b) | other results |
| --- | --- | --- | --- | --- | --- | --- | --- | --- |
| C-TIYDSFLDSLAS (N-terminal Cys; CETP mimotope) [P12-37] |  |  |  |  |  |  |  | antibody response to the original CETP epitope (in words) [1]: did not induce an antibody response to the original epitope |
| p4358-KLH: C-FGFPAHISIDWLQSLS coupled to KLH (CFGFPAHISIDWLQSLS; also: coupled to KLH) | 16.500 | 12.940 | 10 | 0.68 | 0.58 |  |  |  |
| p4340-KLH: C-PGFPAHVSIDWLQSLS coupled to KLH (CPGFPAHVSIDWLQSLS; also: coupled to KLH) | 18.100 | 15.640 | 10 | 0.49 | 0.21 |  |  |  |
| p4227-KLH: P12-19; C-SANPRDFLETLF coupled to KLH (CSANPRDFLETLF; also: coupled to KLH) |  |  |  |  |  |  |  | titer, P4073 (FGFPEHLLVDFLQSLS) ([1]; Table 1, KLH/Alum i.d. (10 μg peptide), mice, sera 2 weeks after 3rd injection): no titer; titer, p irrelevant ([3]; Alum s.c. (30 μg peptide)): no titer; titer, p irrelevant ([3]; KLH/Alum i.d. (10 μg peptide)): no titer |
| C-SANPRDFLETLF (N-terminal Cys; CETP mimotope) [P12-19] |  |  |  |  |  |  |  | antibody response to the original CETP epitope (in words) [1]: induced an immune response to the original CETP epitope in wt mice and in rabbits |
| p4345-KLH: C-FATPSHLIIDWLQSLS coupled to KLH (CFATPSHLIIDWLQSLS; also: coupled to KLH) | 8.380 | 1.270 | 10 |  |  | 0.39 | 0.46 |  |
| p4351-KLH: C-FGFPAHVSIDWLQYLS coupled to KLH (CFGFPAHVSIDWLQYLS; also: coupled to KLH) | 2.950 | 2.400 | 10 |  |  | 0.54 | 0.59 |  |
| p4341-KLH: C-WGFPAHVSIDWLQSLS coupled to KLH (CWGFPAHVSIDWLQSLS; also: coupled to KLH) | 10.350 | 5.500 | 10 | 0.39 | 0.18 |  |  |  |
| p4361-KLH: C-FGFPAHVFIDWLQSLS coupled to KLH (CFGFPAHVFIDWLQSLS; also: coupled to KLH) | 17.940 | 9.530 | 10 | 1.64 | 1.51 |  |  | CETP activity after addition of serum from vaccinated mice ([6]; 0.2 μl mouse serum): reduces significantly said activity; CETP activity after addition of serum from vaccinated mice ([6]; 1.2 μl and 0.6 μl mouse serum): completely inhibits CETP activity; inhibition of CETP activity in human serum (in words) [6]: inhibits significantly CETP activity |
| p4325-KLH: C-FGFPSHLIIDWLQSLS coupled to KLH (CFGFPSHLIIDWLQSLS; also: coupled to KLH) | 2.930 | 1.820 | 10 |  |  | 0.59 | 0.85 | inhibition of CETP activity in human serum (in words) ([6]; listed as p4325-KLH/Alum): inhibits significantly CETP activity; also recorded: C-31 and C-33; sera inhibiting |
